# Assay results reported in patent US11136312B2, “3,4,5-trisubstituted-1,2,4-triazoles and 3,4,5-trisubstituted-3-thio-1,2,4-triazoles and uses thereof” (Board of Trustees of Southern Illinois University, priority 2017, dated 2021).
# Target: human somatostatin receptor SSTR2A (Homo sapiens (Human), UniProt P30874)
# Assay: Competitive radioligand binding, 125I-Tyr-SRIF 14, membrane preparations
# Settings: competitive binding vs 125I-Tyr-SRIF 14, human SSTR2A membranes; read-out: SST2
# Experimental: Respective membrane receptor preparations were prepared in assay buffer (25 mM HEPES, 10 mM MgCl2, 1 mM CaCl2, 0.5% BSA, pH=7.4) at a 1:150 dilution. […] Binding assays were performed in triplicate for each concentration of ligand in a total volume of 200 μL radioligand (25 μL ligand, 25 μL radioligand, 150 μL receptors) and incubated at room temperature for 90 minutes using a shaking table. Binding was terminated by filtration through GF/B glass fiber filters that were presoaked in 0.5% polyethyleneimine for a minimum of 4 hours. Filters were washed 9× with 1000 μL ice cold wash buffer (50 mM Tris-HCl, pH=7.4, 0.2% BSA). Filters were scored, transferred into plastic test tubes and counted in a gamma counter (Wizard2, Perkin-Elmer). Determination of the Ki for each compound was performed using non-linear regression with GraphPad PRISM-5 software (GraphPad Software, Inc., La Jolla, Calif.).
# Sequence of human somatostatin receptor SSTR2A (P30874 whole entry): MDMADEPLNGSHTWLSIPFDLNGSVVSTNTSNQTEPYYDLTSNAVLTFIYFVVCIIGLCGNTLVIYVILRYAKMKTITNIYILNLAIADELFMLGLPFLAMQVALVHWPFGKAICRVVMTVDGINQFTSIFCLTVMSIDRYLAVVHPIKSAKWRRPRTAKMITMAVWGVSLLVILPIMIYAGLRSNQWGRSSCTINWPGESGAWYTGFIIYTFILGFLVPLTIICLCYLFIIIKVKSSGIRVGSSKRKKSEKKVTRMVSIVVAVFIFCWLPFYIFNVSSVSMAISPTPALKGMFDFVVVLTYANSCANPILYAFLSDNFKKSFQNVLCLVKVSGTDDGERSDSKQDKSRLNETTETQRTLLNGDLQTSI
row,Compound,Ki
1,"N[C@H](Cc1c[nH]c2ccccc12)c1nnc(Cc2cccc(Cl)c2)n1CCCc1c[nH]cn1 [BN-VI-87, (R)-1-(4-(3-(1H-Imidazol-4-yl)propyl)-5-(3-chlorobenzyl)-4H-1,2,4-triazol-3-yl)-2-(1H-indol-3-yl)ethanamine]",> 10 µM
2,"Clc1cc(Cl)cc(Cc2nnc(CCc3c[nH]c4ccccc34)n2CCCc2c[nH]cn2)c1 [BN-VI-89, 3-(2-(4-(3-(1H-Imidazol-4-yl)propyl)-5-(3,5-dichlorobenzyl)-4H-1,2,4-triazol-3-yl)ethyl)-1H-indole]",6.98 µM
3,"O=[N+]([O-])c1cccc(Cc2nnc(CCc3c[nH]c4ccccc34)n2CCCc2c[nH]cn2)c1 [MM-I-43, 3-(2-(4-(3-(1H-Imidazol-4-yl)propyl)-5-(3-nitrobenzyl)-4H-1,2,4-triazol-3-yl)ethyl)-1H-indole]",> 10 µM
4,"Fc1ccc2c(Cc3nnc(Cc4cccc(Br)c4)n3CCCc3c[nH]cn3)c[nH]c2c1 [MM-I-83, 3-((4-(3-(1H-imidazol-4-yl)propyl)-5-(3-bromobenzyl)-4H-1,2,4-triazol-3-yl)methyl)-6-fluoro-1H-indole]",2.08 µM
5,"Fc1ccc2c(Cc3nnc(Cc4cccc(C(F)(F)F)c4)n3CCCc3c[nH]cn3)c[nH]c2c1 [MM-I-87, 3-((4-(3-(1H-imidazol-4-yl)propyl)-5-(3-(trifluoromethyl)benzyl)-4H-1,2,4-triazol-3-yl)methyl)-6-fluoro-1H-indole]",3.28 µM
6,"Fc1ccc2c(Cc3nnc(Cc4ccccc4)n3CCCc3c[nH]cn3)c[nH]c2c1 [MM-I-89, 3-((4-(3-(1H-imidazol-4-yl)propyl)-5-benzyl-4H-1,2,4-triazol-3-yl)methyl)-6-fluoro-1H-indole]",> 10 µM
7,"Fc1ccc(Cc2nnc(Cc3c[nH]c4ccccc34)n2CCCc2c[nH]cn2)cc1 [SK-I-16, 3-((4-(3-(1H-imidazol-4-yl)propyl)-5-(4-fluorobenzyl)-4H-1,2,4-triazol-3-yl)methyl)-1H-indole]",> 10 µM
8,"Cn1cc(CCc2nnc(Cc3cccc(C(F)(F)F)c3)n2CCCc2c[nH]cn2)c2ccccc21 [SM-I-76, 3-(2-(4-(3-(1H-imidazol-4-yl)propyl)-5-(3-(trifluoromethyl)benzyl)-4H-1,2,4-triazol-3-yl)ethyl)-1-methyl-1H-indole]",> 10 µM

# Further lines, results first:
row,Ki,Compound
1,> 10 µM,"Clc1ccc(Cc2nnc(CCc3c[nH]c4ccccc34)n2CCCc2c[nH]cn2)cc1 [BN-VI-62, 3-(2-(4-(3-(1H-Imidazol-4-yl)propyl)-5-(4-chlorobenzyl)-4H-1,2,4-triazol-3-yl)ethyl)-1H-indole]"
2,> 10 µM,"c1ccc(-c2ccc(Cc3nnc(CCc4c[nH]c5ccccc45)n3CCCc3c[nH]cn3)cc2)cc1 [MM-I-26, 3-(2-(4-(3-(1H-Imidazol-4-yl)propyl)-5-([1,1′-biphenyl]-4-ylmethyl)-4H-1,2,4-triazol-3-yl)ethyl)-1H-indole]"
3,> 10 µM,"c1ccc(COc2cccc(Cc3nnc(CCc4c[nH]c5ccccc45)n3CCCc3c[nH]cn3)c2)cc1 [MM-I-53, 3-(2-(4-(3-(1H-imidazol-4-yl)propyl)-5-(3-(benzyloxy)benzyl)-4H-1,2,4-triazol-3-yl)-ethyl)-1H-indole]"
4,> 10 µM,"N#Cc1cccc(Cc2nnc(CCc3c[nH]c4ccccc34)n2CCCc2c[nH]cn2)c1 [MM-I-63, 3-((4-(3-(1H-imidazol-4-yl)propyl)-5-(2-(1H-indol-3-yl)ethyl)-4H-1,2,4-triazol-3-yl)methyl)benzonitrile]"
5,7.69 µM,"Clc1ccc(Cc2nnc(Cc3c[nH]c4ccccc34)n2CCCc2c[nH]cn2)cc1 [SK-I-22, 3-((4-(3-(1H-imidazol-4-yl)propyl)-5-(4-chlorobenzyl)-4H-1,2,4-triazol-3-yl)methyl)-1H-indole]"
6,> 10 µM,"COc1ccc(Cc2nnc(CCc3c[nH]c4ccccc34)n2CCCc2c[nH]cn2)cc1 [SM-I-29, 3-(2-(4-(3-(1H-Imidazol-4-yl)propyl)-5-(4-methoxybenzyl)-4H-1,2,4-triazol-3-yl)ethyl)-1H-indole]"
